{"source": "patent US20090075941A1", "about": "“TREATING NEOPLASMS” (THE UAB RESEARCH FOUNDATION, priority 2006, published 2009)", "key": {"[1]": {"system": "unprenylated Rap1A in MDA-MB-231 breast cancer cells", "assay": "Western blot, unprenylated Rap1A (Example 2)", "assay_type": "cell-based, human", "conditions": "MDA-MB-231 cells; 24 h", "experimental": "(§1) Western blot analysis. Cells were cultured on 6-well plates in normal culture medium until near confluency. The cells were then rinsed with sterile PBS and cultured for further 24 h in serum-tree culture medium, in the presence or absence of the indicated bisphosphonates. Some cultures were also treated with 25 μM geranylgeraniol (cold, all trans), 1.0 μg/ml LPS (Sigma; St. Louis, Mo.) 10 ng/ml IL-1β (R&D Systems; Minneapolis, Minn.) or TNF-α (R&D Systems). To study bisphosphonate effects on connexin-43 expression, the cells were cultured for 24 h in serum-free culture medium in the presence of the indicated bisphosphonates or PBS as a vehicle control. Culture medium was then discarded, the cells were quickly lysed and prepared into Western blot samples, as described in Merrell et al. (2000) Breast Cancer Res. Treat. 81, 231-241. After boiling the supernatants in reducing sodium docedyl sulfate (SDS) sample buffer, equal amounts of protein (˜20-50 μg) were loaded per lane and the samples were electrophoresed on 10% SDS polyacrylamide gel and transferred to a nitrocellulose membrane. To detect, unprenylated Rap1A, the blots were incubated overnight at 4° C. with the antibody SC-1482 (Santa Cruz Technology (San Diego, Calif.)), diluted 1:1000 in Tris-buffered saline, 0.1% (v/v) Tween-20 (TEST), and then with peroxidase-conjugated anti-goat serum (Pierce; Rockford, Ill.), diluted 1:1000 in TBST. Total Rap1 was detected from stripped blots in a similar fashion, with the antibody SC-65 (Santa Cruz Technology). The phosphorylation status of p38 was investigated using anti-phospho-p38 (Cell Signaling; Beverly, Mass.) and after stripping of the membrane, with anti-total p38 antibodies (Cell Signaling), according to the manufacturer's instructions. Expression of connexin-43 was detected with a rabbit anti-connexin-43 antibody (Zymed Laboratories, Inc.; San Francisco, Calif.), diluted 1:1000 in TBST. The protein bands were visualized by chemiluminescence using SuperSignal West Pico ECL kit (Pierce Biotechnology, Inc.; Rockford, Ill.)."}, "AB12 cells": {"system": "AB12 cells", "assay": "In vitro growth assay, BrdU incorporation", "assay_type": "cell-based, mouse", "conditions": "with p38 inhibitor SB202190 10^−5 M vs inactive control compound, 5 days", "experimental": "(§2) In vitro growth assay. […] Briefly, […] were plated onto 96-well plates in 100 μl of normal culture medium. The cells were then treated with the indicated agents for various times. BrdU was added to the wells for the final 24 h and incorporated BrdU was detected with sequential additions of monoclonal mouse anti-BrdU antibody and HRP-conjugated anti-mouse antibody. After addition of the substrate for HRP, intensity of the colored reaction product, which is proportional to the amount of BrdU incorporated into the cells, was read with spectrophotometer at […]."}, "AC29 cells": {"system": "AC29 cells", "assay": "In vitro growth assay, BrdU incorporation", "assay_type": "cell-based, mouse", "conditions": "with p38 inhibitor SB202190 10^−5 M vs inactive control compound, 5 days", "experimental": "as §2"}, "[2]": {"system": "unprenylated Rap1A in AB-12 mesothelioma cells", "assay": "Western blot, unprenylated Rap1A (Example 2)", "assay_type": "cell-based, mouse", "conditions": "AB-12 cells; 24 h", "experimental": "as §1"}}, "data": [{"smiles": "O=P(O)(O)C(O)(Cc1cccnc1)P(=O)(O)O", "note": "[risedronate]", "values": [{"measurement": "accumulation of unprenylated Rap1A", "setting": "[1]", "value": "dose-dependent accumulation"}, {"measurement": "BP-induced growth inhibition on inhibition of p38", "setting": "AB12 cells", "value": "augmented"}, {"measurement": "BP-induced growth inhibition on inhibition of p38", "setting": "AC29 cells", "value": "augmented"}, {"measurement": "accumulation of unprenylated Rap1A", "setting": "[2]", "value": "dose-dependent accumulation"}]}]}
